Data as given in patent publication US20090011974A1, “Scavenger Receptor B1 (Cla-1) Targeting for the Treatment of Infection, Sepsis and Inflammation” (priority 2002, published 2009).
Entries after “also recorded” stand apart in the source; their conditions may differ. Where no end group is shown, it is not given here.

How the values were obtained:
THP-1 cells [1] = assay: LTA, Gro-EL and HSP60 stimulated IL-8/IL-6 production in THP-1 cells; format: cell-based, human; conditions: 1 μg/ml LTA or Gro-EL, 10-200 fold excess of peptide
Protocol: (§1) THP-1 and CLA-1 overexpressing HeLa cells. Human monocyte-macrophages, THP-1 (ATCC [American Type Culture Collection] TIB 71), are grown in 48-well plates in RPMI 1640 medium supplemented with 10% fetal calf serum (FCS), penicillin (100 U/ml), and streptomycin (100 μg/ml). All experiments involving LPS-induced interleukin production utilize the same media except that 1% FCS was used. Hela cells were cultured as previously reported (Vishnyakova, T. G. et al. (2003) “BINDING AND INTERNALIZATION OF LIPOPOLY[…] CLA-1, A HUMAN ORTHOLOGUE OF RODENT […] RECEPTOR B1,” J. Biol. Chem 278:22771-22780).
Assays for cytokines and lactate dehydrogenase (LD).

CLA-1 [2] = biological target: T1, CLA-1 (Homo sapiens, UniProt Q8WTV0); assay: Competition for Alexa 488-SAA uptake in CLA-1 overexpressing and mock transfected HeLa cells (FACS); format: binding; conditions: mock transfected and CLA-1 overexpressing HeLa cells
T1 construct: using the expression plasmid pTRE2 (Clontech, Pal Alto, Calif.), encoding a CLA-1 protein (pTRE2-CLA-1); expressed in transfected cells; host or cells: HeLa (Tet-off) cells (Clontech), stably co-transfected with pTRE2-CLA-1 and pTK-Hyg and selected with hygromycin
T1 sequence (Q8WTV0 1-509 isoform Q8WTV0-2): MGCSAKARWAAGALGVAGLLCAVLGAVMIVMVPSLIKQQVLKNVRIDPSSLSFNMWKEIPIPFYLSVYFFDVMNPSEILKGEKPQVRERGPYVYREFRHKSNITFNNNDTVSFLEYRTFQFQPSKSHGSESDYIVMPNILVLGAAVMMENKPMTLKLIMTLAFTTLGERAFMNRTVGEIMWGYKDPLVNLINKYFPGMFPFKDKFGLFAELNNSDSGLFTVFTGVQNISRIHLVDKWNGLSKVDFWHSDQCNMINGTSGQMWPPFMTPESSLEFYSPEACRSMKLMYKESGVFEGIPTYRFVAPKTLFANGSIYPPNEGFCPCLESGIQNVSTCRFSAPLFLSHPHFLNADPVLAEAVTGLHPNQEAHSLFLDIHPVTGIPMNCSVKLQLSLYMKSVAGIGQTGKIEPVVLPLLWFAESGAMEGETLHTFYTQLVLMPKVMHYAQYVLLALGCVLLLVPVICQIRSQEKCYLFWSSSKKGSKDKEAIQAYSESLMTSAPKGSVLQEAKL
Protocol: Competition experiments. Cells are cultured for 24 hr in serum free DMEM before experiments. […] For KKB-1 anti-CLA-1 blocking experiments, cells are pre-incubated with KKB-1 rabbit anti-serum (non-immune rabbit serum as a negative control) at a dilution of 1:10 followed by ligand addition to a final concentration of 5 μg/ml and a 1-hour incubation. Cell fluorescence was analyzed by FACS analyses.

THP-1 cells [3] = assay: LPS-stimulated cytokine production in THP-1 cells (ELISA); format: cell-based, human; conditions: 10 ng/ml LPS, 24 h
Protocol: as §1
Assays for cytokines and lactate dehydrogenase (LD). […]

CLA-1 [4] = biological target: T1, CLA-1; assay: Confocal uptake of Alexa/Bodipy labelled ligands in CLA-1 expressing versus mock transfected HeLa cells; format: cell-based; conditions: for uptake in CLA-1 transfected HeLa cells compared with mock-transfected control: labelled ligand, confocal microscopy
Protocol: Preparation of BODIPY-LPS and Alexa-568 HDL, Lipid-free ApoA-I, L-37PA, L2D-37PA and 18A. HDL, apoA-I, L-37PA, L2D-37PA and 18A are conjugated with Alexa-568, SE (Molecular Probes, protein labeling kit) following the kit instructions. The Alexa ligands are analyzed by 10-20% Tricine-SDS peptide gel electrophoresis. Gels are scanned using Variable Mode Imager, Typhoon 9200, Molecular Dynamics. Alexa-labeled preparations of HDL, apolipoproteins and the peptides are found in appropriate positions with molecular masses of 28, 5 and 2.5 kDa for apoA-I, L-37PA and 18PA, respectively.
(§2) HeLa cells cultured on glass micro-slides are incubated with 5 μg/ml of Alexa568 HDL, 1-0.5 μg/ml of Alexa 568 apoA-I, 1-0.5 μg/ml of Alexa 568 L-37PA or 0.5 μg/ml Bodipy-LPS for 1-2 h in a CO2 incubator in DMEM containing 1 mg/ml BSA. […] For co-localization, Bodipy-LPS and Alexa 568-HDL or Bodipy-LPS and Alexa 568-L-37PA were used at the same concentrations of 0.5 μg/ml. Fluorescence was viewed with a Zeiss 510 laser scanning confocal microscope, using a krypton-argon-Omnichrome laser with excitation wavelengths of 488 and 568 nm for Bodipy-LPS and Alexa-568 labels, respectively.

[5] = tested on: CLA-1 overexpressing HeLa cells; assay: Bodipy-LPS uptake in HeLa cells in the presence of competitors; format: cell-based, human; conditions: for effect on Bodipy-LPS uptake (surface binding and internalization): 100-fold excess of peptide, HeLa cells
Protocol: HeLa cells cultured on collagen-coated glass micro-slides are incubated with 5 μg/ml of Alexa 568 HDL, 1-0.5 μg/ml of Alexa 568 apoA-I, 1-0.5 μg/ml of Alexa 568 apoA-II or 0.5 μg/ml Bodipy-LPS for 1-2 hour in a CO2 incubator in DMEM containing 20 mg/ml BSA. […] Imaging is performed in PBS containing 0.4 mg/ml of Trypan Blue as the quenching agent. […] For co-localization, Bodipy-LPS and Alexa-568-apoA-I are used at the same concentration of 0.5 μg/ml. A Nikon video-imaging system, consisting of a phase contrast inverted microscope equipped with set of objectives and filters for immunofluorescence and connected to a digital camera and image processor, is used for recording Alexa-568-HDL and Bodipy-LPS uptake. For co-localization experiments, fluorescence is viewed with a Zeiss 510 laser scanning confocal microscope, using a krypton-argon-Omnichrome laser with excitation wavelengths of 488 and 568 nm for Bodipy-LPS and Alexa-568, respectively.
as §2
Competition Experiments. The cells are incubated in 1 μg/ml Bodipy-LPS in the presence increasing concentrations of studied peptides. After 2-h incubation cells are washed with ice-cold PBS and lysed in 0.1% sodium dodecyl sulfate (SDS). The lysate fluorescence is measured by HTS7000 Bioassay reader (Perkin Elmer) using 488 nm for excitation and 533 nm for emission monitoring.

[6] = Limulus amebocyte lysate (LAL) assay for LPS incubated with peptides; conditions: 10 ng/ml LPS, 10 μg/ml peptide, 37° C., 24 h; for effect on LAL activity of LPS in the absence of bivalent cations: PBS; for effect on LAL activity of LPS in media containing bivalent cations: RPMI-1640 1% FCS or DPBS
Text: Limulus Amebocyte Lysate (LAL) Assay for LPS.
Limulus amebocyte lysate (LAL) assay for LPS.

## DWLKAFYDKVAEKLKEAF-P-DWLKAFYDKVAEKLKEAF [L1D-37PA] (DWLKAFYDKVAEKLKEAFPDWLKAFYDKVAEKLKEAF; not fully specified (residue 1)) [Peptide L1D-37PA]
THP-1 cells [1]
  effect on LTA and Gro-EL stimulated IL-8 and IL-6 production: not effective blockers; also recorded: no effect was observed
CLA-1 [2]
  competition with Alexa 488-SAA for CLA-1: No competition is demonstrated
THP-1 cells [3]
  effect on LPS-stimulated cytokine (IL-8, IL-6, TNF-α) production: not effective blockers

## DWLKAFYDKVAEKLKEAF [Peptide 18A]
CLA-1 [4]
  SR-BI/CLA-1 ligand property: less potent SR-BI/CLA-1 ligand
  uptake in CLA-1 transfected HeLa cells compared with mock-transfected control: not increased
[5]
  effect on Bodipy-LPS uptake (surface binding and internalization): did not affect LPS-uptake
THP-1 cells [1]
  effect on LTA and Gro-EL stimulated IL-8 and IL-6 production: low blocking efficiency
[6]
  effect on LAL activity of LPS in the absence of bivalent cations: similarly neutralized LPS activity
  effect on LAL activity of LPS in media containing bivalent cations: had no effect on the LAL activity of LPS in culture media
THP-1 cells [3]
  effect on LPS-stimulated cytokine (IL-8, IL-6, TNF-α) production: did not affect LPS-uptake and LPS-stimulated cytokine production; also recorded: Neither L2D-37PA nor 18A, a single helix containing peptide, are effective inhibitors; also recorded: without effect

## DWLKAFYDKVAEKLKEAF-P-DWLKAFYDKVAEKLKEAF [L2D-37PA] (DWLKAFYDKVAEKLKEAFPDWLKAFYDKVAEKLKEAF; also: two D-amino acids per helix, places not given here) [Peptide L2D-37PA]
CLA-1 [4]
  SR-BI/CLA-1 ligand property: do not bind to SR-BI/CLA-1
  uptake in CLA-1 transfected HeLa cells compared with mock-transfected control: not increased
[5]
  effect on Bodipy-LPS uptake (surface binding and internalization): did not affect LPS-uptake; also recorded: does not decrease LPS uptake; also recorded: block neither LPS uptake
THP-1 cells [1]
  effect on LTA and Gro-EL stimulated IL-8 and IL-6 production: not effective blockers; also recorded: block neither LPS uptake nor LPS/LTA/Gro-EL induced interleukin (IL-6 and IL-8) secretion; also recorded: no effect was observed
CLA-1 [2]
  competition with Alexa 488-SAA for CLA-1: No competition is demonstrated
[6]
  effect on LAL activity of LPS in the absence of bivalent cations: also decreases LPS activity in the absence of bivalent cations
  effect on LAL activity of LPS in media containing bivalent cations: No substantial LPS neutralization; also recorded: had no effect in the presence of bivalent cations
[6]; listed as L2D-37P A
  effect on LAL activity of LPS in the absence of bivalent cations: similarly neutralized LPS activity
  effect on LAL activity of LPS in media containing bivalent cations: had no effect on the LAL activity of LPS in culture media
THP-1 cells [3]
  effect on LPS-stimulated cytokine (IL-8, IL-6, TNF-α) production: did not affect LPS-uptake and LPS-stimulated cytokine production; also recorded: Neither L2D-37PA nor 18A, a single helix containing peptide, are effective inhibitors; also recorded: not effective blockers; also recorded: without effect; also recorded: block neither LPS uptake nor LPS/LTA/Gro-EL induced interleukin (IL-6 and IL-8) secretion

## DWLKAFYDKVAEKLKEAF-P-DWLKAFYDKVAEKLKEAF [L3D-37PA] (DWLKAFYDKVAEKLKEAFPDWLKAFYDKVAEKLKEAF; also: triple D-amino acid substitutions, places not given here) [Peptide L3D-37PA]
THP-1 cells [1]
  effect on LTA and Gro-EL stimulated IL-8 and IL-6 production: not effective blockers; also recorded: no effect was observed
CLA-1 [2]
  competition with Alexa 488-SAA for CLA-1: No competition is demonstrated
THP-1 cells [3]
  effect on LPS-stimulated cytokine (IL-8, IL-6, TNF-α) production: not effective blockers

## apoA-I: lipid poor apolipoprotein A-I purified from human plasma
CLA-1 [4]
  uptake in CLA-1 transfected HeLa cells compared with mock-transfected control: Increased surface binding and internalization
[5]; 100× excess, CLA-1 overexpressing cells
  effect on surface bound Bodipy-LPS: eliminated surface bound Bodipy-LPS
[5]; 200× excess of unlabeled lipid poor apoA-I, CLA-1 overexpressing HeLa cells
  effect on Bodipy-LPS uptake: dramatically reduces Bodipy-LPS uptake
CLA-1 [2]
  competition with Alexa 488-SAA for CLA-1: compete with Alexa 488-SAA for CLA-1
CLA-1 [2]; listed as ApoA-I
  competition with Alexa 488-SAA for CLA-1: competed for CLA-1 binding with Alexa 488-SAA
